Ten molecules from US7268232B2 (Acadia Pharmaceuticals Inc., priority 2004, dated 2007) can be followed below.

The target in one series is T1, Androgen AR receptor (Homo sapiens, UniProt P10275).
T1 construct: expressed in transfected cells; host or cells: NIH3T3 cells
T1 sequence (P10275 1-920): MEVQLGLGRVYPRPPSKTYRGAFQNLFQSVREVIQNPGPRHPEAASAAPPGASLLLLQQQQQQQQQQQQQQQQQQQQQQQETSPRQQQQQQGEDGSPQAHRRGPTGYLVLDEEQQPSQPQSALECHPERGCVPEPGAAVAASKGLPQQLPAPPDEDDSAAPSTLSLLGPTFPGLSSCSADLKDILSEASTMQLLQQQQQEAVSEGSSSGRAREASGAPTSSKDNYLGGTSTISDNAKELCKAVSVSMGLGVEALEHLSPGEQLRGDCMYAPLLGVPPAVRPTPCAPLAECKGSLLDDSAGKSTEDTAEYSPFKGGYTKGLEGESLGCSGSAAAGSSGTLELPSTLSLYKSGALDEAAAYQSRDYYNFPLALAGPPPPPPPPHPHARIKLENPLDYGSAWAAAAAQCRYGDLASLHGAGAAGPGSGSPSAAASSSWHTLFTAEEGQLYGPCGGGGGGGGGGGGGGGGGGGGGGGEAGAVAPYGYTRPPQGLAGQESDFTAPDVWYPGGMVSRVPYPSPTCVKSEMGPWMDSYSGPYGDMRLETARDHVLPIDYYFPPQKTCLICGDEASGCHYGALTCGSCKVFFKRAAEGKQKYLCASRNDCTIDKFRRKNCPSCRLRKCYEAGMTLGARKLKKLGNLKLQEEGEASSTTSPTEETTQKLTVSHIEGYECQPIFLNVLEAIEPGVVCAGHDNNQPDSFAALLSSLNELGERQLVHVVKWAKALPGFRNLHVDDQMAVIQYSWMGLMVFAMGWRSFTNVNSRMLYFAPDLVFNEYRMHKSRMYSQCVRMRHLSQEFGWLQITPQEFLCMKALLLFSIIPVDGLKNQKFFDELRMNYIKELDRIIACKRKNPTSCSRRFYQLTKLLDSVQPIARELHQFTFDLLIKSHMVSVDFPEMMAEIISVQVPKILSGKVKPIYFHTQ
The experiment in a line: Receptor Selection and Amplification (R-SAT) assay, androgen receptor agonist activity. Format: cell-based. The note with it: for Emax: NIH3T3, read-out: % Efficacy. The procedure: Receptor Selection and Amplification (R-SAT) Assays. The functional receptor assay, Receptor Selection and Amplification Technology (R-SAT™), was used with minor modifications from the procedure described previously (Brann, M. R. U.S. Pat. No. 5,707,798, 1998) to screen compounds for efficacy at the Androgen AR receptor. Briefly, NIH3T3 cells were grown in roller bottles to 70-80% confluence. Cells were then transfected for 12-16 h with plasmid DNAs using Polyfect (Qiagen Inc.) as per the manufacturer's protocol. R-SAT assays were typically performed by transfecting 30 ug/bottle of receptor and 50 ug/bottle of β-galactosidase plasmid DNA. All receptor and helper constructs used were in mammalian expression vectors. Helpers are defined as signaling molecules that modulate both ligand-dependent and/or ligand-independent function of the AR receptor, typically co-activators. NIH3T3 cells were transfected for 12-16 h, then trypsinized and frozen in DMSO. Frozen cells were later thawed, plated at 10,000-40,000 cells per well of a 96 well plate containing drug. Cells were then grown in a humidified atmosphere with 5% ambient CO2 for five days. Media was then removed from the plates and marker gene activity was measured by the addition of the β-galactosidase substrate o-nitrophenyl β-D-galactopyranoside (ONPG, in PBS with 5% NP-40). The resulting colorimetric reaction was measured in a spectrophotometric plate reader (Titertek Inc.) at […]. All data were analyzed using the computer program XLFit (IDBSm).

Series [1] has as its system castrated male Sprague Dawley rats. The experiment in a line: Wet tissue weights (prostate, seminal vesicle, levator ani muscle) after daily s.c. administration for two weeks. Type of series: in vivo, rat. The note with it: for wet weight of prostate / wet weight of seminal vesicle: castrated rats. The procedure:
(§1) Androgen Receptor agonist 116BG33 was administered s.c. daily for two weeks to castrated male Sprague Dawley rats (n=3). The effects of 116BG33 (3, 10, 30 mg/kg) were compared to testosterone propionate (0.1 and 1 mg/kg; positive control) and vehicle (10% Tween80; negative control). Blood and wet weights of prostate gland and seminal vesicle were measured after sacrifice that occurred 24 hours after the last dose. Blood was collected in heparin collection tubes after sacrifice that occurred 24 hours after the last dose. Blood was centrifuged and plasma collected and plasma samples frozen.

For series [2] the test system is unchanged. The experiment in a line: Rat luteinizing hormone (LH) plasma levels by ELISA after daily s.c. administration for 14 days. Type of series: in vivo. The following applies: for dose at which complete reversal of plasma LH levels is evident: s.c. daily for 14 days. The procedure: as §1
Rat luteinizing hormone (LH) plasma levels were determined using an enzyme linked immunoabsorbent assay (ELISA) from Amersham as per manufacturer's instructions. The solid phase assay is based on the competition between unlabeled rLH and a fixed quantity of biotin labelled rLH for a limited amount of rLH specific antibody. A conjugate streptavidin/peroxidase allows for signal amplification and detection in presence of the substrate.
A general note: ELISA stands for enzyme-linked immunosorbent assay.

Setting [3] is: 3, 10 or 30 mg/kg s.c. daily for two weeks, compared to vehicle.
[4] abbreviates: 0.1 mg/kg s.c. daily for two weeks, compared to vehicle.
The mark [5] stands for this setting: 1 mg/kg s.c. daily for two weeks, compared to vehicle.

Structures can show the parent of a compound that is named as a salt.

As usually defined, the EC50 is the concentration that produces a half-maximal response. Regarding `CC1CCC(C)N1c1ccc([N+](=O)[O-])c2ccccc12` (stereo not drawn), at Androgen AR receptor, a half-maximal effect (EC50) was put at 7.94 nM and the Emax came out at 94%.

For the molecule `N#Cc1ccc(N2[C@@H]3CC[C@H]2CC(NCCc2c[nH]cn2)C3)c2ccccc12` (mixture of isomers) [156AF11-229, 4-{3-[2-(1H-Imidazol-4-yl)ethylamino]-8-azabicyclo[3.2.1]oct-8-yl}naphthalene-1-carbonitrile, dihydrochloride], at Androgen AR receptor, the concentration for a half-maximal effect (EC50) is 158 nM and the Emax was 44%.

As to `O=[N+]([O-])c1ccc(N2CCCC2)c2ccccc12` [116BG33, 1-(4-Nitronaphthalen-1-yl)pyrrolidine], in series [1] (setting [3]), the “wet weight of prostate” value is listed as “did not have any effect” and the “wet weight of seminal vesicle” value is “did not have any effect”. Besides, the “dose at which complete reversal of plasma LH levels is evident” value in series [2] is listed as 30 mg/kg. Further, the “plasma LH levels” value in series [2] (sub-cutaneous, 3, 10, 30 mg/kg, 14 days) is “reduces LH levels to physiological norms”.

Consider `N#Cc1ccc(N2CCCCC2)c2ccccc12` [136BG73-10, 4-Piperidin-1-ylnaphthalene-1-carbonitrile], for which, on Androgen AR receptor, the EC50 was 7.94 nM and the Emax was determined as 66%.

For the molecule `N#Cc1ccc(N2CCC(O)C2)c2ccccc12` (stereo not drawn) [136BG85-2, 4-(3-Hydroxypyrrolidin-1-yl)naphthalene-1-carbonitrile], on Androgen AR receptor, it took 79.4 nM to reach a half-maximal effect (EC50) and the Emax was determined as 41%.

With `N#Cc1ccc(N2[C@@H]3CC[C@H]2CC(O)C3)c2ccccc12` (stereo partly drawn) [154BG31, 4-(3-endo-Hydroxy-8-azabicyclo[3.2.1]oct-8-yl)naphthalene-1-carbonitrile], the “wet tissue weights (prostate, seminal vesicle, levator ani muscle)” value in series [1] (3 mg/kg s.c. daily for two weeks) is on record as “did not appear to significantly alter”; in series [1] (higher doses (3 and 10 mg/kg) daily, not to the extent of TP), “appeared to significantly increase”. Moreover, in series [1] (compared to TP), the “dose relative to TP at which negative side effects (increased seminal vesicle and prostate size) become evident” value is given as “at least 100 × of TP”. Also, the “dose at which complete reversal of plasma LH levels is evident” value in series [2] worked out at 10 mg/kg. Also, the “plasma LH levels” value in series [2] (various doses, s.c. for 14 days) was “dose-dependent suppression”.

With `N#Cc1ccc(N2C3CCC2CC(OC(=O)CCN2CCOCC2)C3)c2ccccc12` (stereo not drawn) [156AF32-246, 3-Morpholin-4-ylpropionic acid endo-8-(4-cyanonaphthalen-1-yl)-8-azabicyclo[3.2.1]oct-3-yl ester, hydrochloride], at Androgen AR receptor, the EC50 was 39.8 nM and the Emax was 57%.

Regarding `CC1(O)CC2CCC(C1)N2c1ccc(C#N)c2ccccc12` (stereo not drawn) [156AF70-267, 4-(3-Endo-hydroxy-3-exo-methyl-8-azabicyclo[3.2.1]oct-8-yl)naphthalene-1-carbonitrile], on Androgen AR receptor, a half-maximal effect (EC50) was put at 2 nM and the Emax is 88%.

For `CC1C=CC(C)N1c1ccc(C#N)c2ccccc12` (stereo not drawn) [196MBT2-7, 4-(2,5-Dimethyl-2,5-dihydropyrrol-1-yl)naphthalene-1-carbonitrile], on Androgen AR receptor, the EC50 is 7.94 nM and the Emax was 85%.

As to `CCC(=O)O[C@H]1CC[C@H]2[C@@H]3CCC4=CC(=O)CC[C@]4(C)[C@H]3CC[C@]12C` [testosterone propionate], in series [1] (setting [4]), the “wet weight of prostate” value was “did not have any effect” and the “wet weight of seminal vesicle” value was “did not have any effect”. In addition, in series [1] (setting [5]), the “wet weight of prostate” value is recorded as “significant increases”, the “wet weight of seminal vesicle” value is reported as “significant increases” and the “wet weight of levator ani muscle” value is listed as “significant increases”. Further, the “plasma LH levels” value in series [2] (1 mg/kg, s.c. for 14 days, versus naive rats) is “restored LH levels to those obtained in naive rats”. In addition, the “plasma LH levels” value in series [2] (chronic administration (14 days), 0.1 and 1 mg/kg, versus naive animals) is recorded as “dose dependent reversal”.
